# Reference: patent US20260337125A1, “RADIOLABELED TYROSINE DERIVATIVE AND APPLICATION THEREOF” (Osaka University, priority 2022, published 2026)
# Legend:
# [1] = background art; cited from earlier work
# [2] = test system: CDDP-resistant A549 (A549 CDDP-r); conditions: 48 hours, 37 °C, Cell counting kit-8
# Protocol: Two days before experiment, A549 and CDDP-resistant A549 (A549 CDDP-r) were each seeded in a 96-well plate at a concentration of 1×10^5 cells/mL. ^211At-AAMT-OMe or ^211At-AAMT adjusted to a predetermined concentration was added to A549 cells and CDDP-resistant A549 cells, respectively, and the cells were cultured (CO2 5%, 37 °C). After the cultivation for 48 hours, Cell counting kit-8 (DOJINDO LABORATORIES) was added. After the addition, the cells were cultured at 37 °C for 1 hour, and cell viability was measured using absorbance at 450 nm as an indicator.
# [3] = Measurement of accumulated amounts of 211At-labeled compounds in PANC1 tumor-bearing mice; assay type: in vivo, human (PANC1) in Balb/c-nu/nu mice; conditions: tumor, iv, 0.1 MBq/animal, 0.1 MBq/0.2 mL per mouse, tail vein, read-out: tumor accumulation
# Protocol: Radiation doses before and after the administration were measured, and a difference between them was defined as an injected dose (ID). Ten minutes and one hour after administration, the mice were anesthetized by isoflurane inhalation, the tumors were isolated by autopsy in chronological order, and their radiation doses and weights were measured using a gamma counter (2480 Wizard^2, PerkinElmer) and a semimicro scale (Shimadzu Corporation, readability 10 μg), respectively. For comparison between accumulated amounts, accumulated amounts per unit amount (% ID/g) were calculated.
# In Table 1, the amounts of the ^211At-labeled compounds accumulated in tumors of the PANC1 tumor-bearing models (% ID/g) are shown. It should be noted that in Table 1, “OMe” is ^211At-AAMT-OMe, “OEt” is ^211At-AAMT-OEt, “OPr” is ^211At-AAMT-OPr, and “OH” is ^211At-AAMT.
# [4] = test system: human pancreatic cancer cell line (PANC1); experiment: Imaging of mice subcutaneously transplanted with human pancreatic cancer cell line PANC1; assay type: in vivo, human (PANC1) in Balb/c-nu/nu mice; conditions: 2 hours after administration, 0.5 MBq/0.2 mL per mouse, tail vein
# Source text: Immunodeficient mice (Balb/c-nu/nu, 5-week-old, male) were habituated for 1 week and then subcutaneously transplanted with a human pancreatic cancer cell line (PANC1, 1×10^7 cells/mouse). After the transplantation, the mice were observed over time until tumor reached a size large enough for imaging (about 1000 mm^3). […] Two hours after administration, the mice were anesthetized by isoflurane inhalation, and planar images were taken using a γ camera (E-cam, Siemens).
structure (smiles),measurement,setting,value
"C[C@](N)(Cc1ccc(O)c([At])c1)C(=O)O [^211At-AAMT, astato(^211At)-α-methyl-L-tyrosine, reference compound]",clearance,[1],fast clearance
same,cytotoxicity,[2],has cytotoxicity against CDDP-resistant A549 (A549 CDDP-r)
same,tissue uptake at 10 min,[3]; 10 minutes after administration,0.29 %ID/g
same,tissue uptake at 1 h,[3]; 1 hour after administration,2.49 %ID/g
same,accumulation in tumor site (planar γ camera image),[4],accumulated in the tumor sites
